Laboratory results from article PMC5978884, “Dissection of the antimicrobial and hemolytic activity of Cap18: Generation of Cap18 derivatives with enhanced specificity” (PLoS ONE, 2018).
Where two headings read alike, the source gives them in different places. Where no end group is shown, it is not given here.

Legend:
[1] = test system: Aeromonas salmonicida ATCC33658; experiment: microbe, parasite or virus in culture; format: cell-based; settings: ATCC33658
Protocol: (§1) All strains were grown in Mueller-Hinton-II medium, except L. monocytogenes which was grown in BHI medium and L. lactis which was grown in MRS medium. Incubation took place aerobically at 37°C, except for Y. ruckeri and A. salmonicida, which were grown aerobically at RT (20 °C), and L. lactis grown aerobically at 30°C. All plates were incubated for 16–21 hours.
(§2) The minimum inhibitory concentrations (MICs) of the AMPs were measured in 96-well microtiter plates according the Clinical and Laboratory Standards Institute (CLSI, formerly National Committee for Clinical Laboratory Standards [NCCLS]). Briefly, liquid Mueller-Hinton-II medium containing increasing concentrations of AMPs is inoculated with a defined number of cells (approx. 10^5 CFUs/ml) in 96-well microtiter plates (polypropylene), whereas each plate also includes a positive growth control and a negative control (sterile control). The range of peptide concentrations analyzed was 0.125–64 μg/ml for the high purity peptides and 0.06–32 μg/ml for peptides of the variant library. After incubation, the MIC is determined by the lowest concentration showing no visible growth. All plates were incubated for 16–20 hours. The MIC of the reference antibiotics was determined by the use of Sensititre panels (Trek Diagnostic Systems Ltd, East Grinstead, UK).

[2] = test system: Salmonella enterica serovar Typhimurium LT2; experiment: microbe, parasite or virus in culture; format: cell-based; settings: LT2
Protocol: as §1, §2

[3] = test system: Yersinia ruckeri 392/2003; experiment: microbe, parasite or virus in culture; format: cell-based
Protocol: as §1, §2

[4] = test system: Enterococcus faecalis ATCC29212; format: cell-based
Protocol: as §1, §2

[5] = test system: Escherichia coli ATCC25922; format: cell-based
Protocol: as §1, §2

[6] = test system: Lactococcus lactis IL1403; format: cell-based
Protocol: as §1, §2

[7] = test system: Listeria monocytogenes N22-2; format: cell-based
Protocol: as §1, §2

[8] = test system: Pseudomonas aeruginosa ATCC27853; format: cell-based
Protocol: as §1, §2

horse erythrocytes = test system: horse erythrocytes; parameters: method as in PMID 26656394; settings: cited from earlier work
[9] = previous study; cited from earlier work
Excerpt: It must be expected that AMPs during evolution have evolved towards a high general activity against multiple microorganisms. In this study, we address the issues of species specificity, hemolytic activity and antimicrobial activity of Cap18, a α-helical peptide of the cathelicidin family.

[10] = test system: all the tested bacterial species including Gram-positive and Gram-negative bacteria
Protocol: as §2, with “The range of peptide concentrations analyzed was 0.125–64 μg/ml for the high purity peptides and 0.06–32 μg/ml for peptides of the variant library.” left out
To identify Cap18 variant peptides with changed species specificity, the antimicrobial screening data of Y. ruckeri, A. salmonicida, S. Typhimurium and L. lactis was compared.
In addition, three Cap18 derivatives harboring either a I13F, I13M or G26T substitution were ordered as positive controls. […] The antimicrobial activity of the highly pure peptides was determined by measuring the MIC value of each derivative against the four test strains Y. ruckeri, A. salmonicida, S.Typhimurium and L. lactis (Table 6). […] In addition to the additional screening strains, a wider range of relevant pathogens including Gram-positive and Gram-negative bacteria was analyzed for targeted antimicrobial activity.

MIC A. salmonicida ATCC33658 [1] [µg/mL]	MIC S. Typhimurium LT2 [2] [µg/mL]	MIC E. faecalis ATCC29212 [4] [µg/mL]	MIC E. coli ATCC25922 [5] [µg/mL]	MIC L. lactis IL1403 [6] [µg/mL]	MIC L. monocytogenes N22-2 [7] [µg/mL]	MIC P. aeruginosa ATCC27853 [8] [µg/mL]	MIC Y. ruckeri 392/2003 [3] [µg/mL]	MIC against all the tested bacterial species [10] [µg/mL]	Sequence	MIC A. salmonicida [1] [µg/mL]	MIC S. Typhimurium [2] [µg/mL]	MIC Y. ruckeri [3] [µg/mL]	MIC Y. ruckeri 392/2003 ([3]; high purity peptides, Mueller-Hinton-II, RT (20 °C), 0.125–64 μg/ml, triplicates) [µg/mL]	MIC L. lactis [6] [µg/mL]	Hemolytic activity in vitro (horse erythrocytes)	Thermostability [9]
≥64	≥64	≥64	≥64	≥64	≥64	≥64	≥64	≥ 32	GLRKRLRKFRNKIKEKLKKIGQKDQGLLPKLAPRTDY [Peptide 26]							
≥64	≥64	≥64	≥64	≥64	32 to 64	≥64	≥64	≥ 32	GLRKRLRKFRNKDKEKLKKIGQKIQGLLPKLAPRTDY [Peptide 3]							

Sequence	MIC A. salmonicida ATCC33658 [1] [µg/mL]	MIC S. Typhimurium LT2 [2] [µg/mL]	MIC E. faecalis ATCC29212 [4] [µg/mL]	MIC E. coli ATCC25922 [5] [µg/mL]	MIC L. lactis IL1403 [6] [µg/mL]	MIC L. monocytogenes N22-2 [7] [µg/mL]	MIC P. aeruginosa ATCC27853 [8] [µg/mL]	MIC Y. ruckeri 392/2003 [3] [µg/mL]	MIC against all the tested bacterial species [10] [µg/mL]	MIC A. salmonicida [1] [µg/mL]	MIC S. Typhimurium [2] [µg/mL]	MIC Y. ruckeri [3] [µg/mL]	MIC Y. ruckeri 392/2003 ([3]; high purity peptides, Mueller-Hinton-II, RT (20 °C), 0.125–64 μg/ml, triplicates) [µg/mL]	MIC L. lactis [6] [µg/mL]	Hemolytic activity in vitro (horse erythrocytes)	Thermostability [9]
GLRKRLRKFRNKIKEKLKKIGQKIQGLLPKLAPRTDY [Cap18]	4	4 to 8	8	4 to 8	1 to 2	4	4 to 8			2	2 to 4	2	2 to 4	2 to 4	no hemolytic activity	highly thermostable
